# Data: patent publication US20130011495A1, “ANTIFUNGAL COMPOUNDS AND USE THEREOF” (priority 2009, published 2013)
# “Also recorded” adds a separate entry of the source. Read-outs that look alike come from different tables or passages of the source.
# Tests used:
# [1] = tested on: Phaeomoniella chlamydospora; experiment: Mycelial growth on solid medium; settings: for inhibition of growth, dose dependence: 5, 10 and 20 mM (whatever concentration); for inhibition of growth, dose dependence / inhibition of growth: FIG. 5 A; for inhibition of fungal development: FIG. 6 A
# [2] = tested on: Phaeoacremonium aleophilum; experiment: Mycelial growth on solid medium; settings: for inhibition of development, dose dependence: 5, 10 and 20 mM
# [3] = tested on: Eutypa lata; settings: pH 4.1; cited from earlier work
# [4] = cited from earlier work
# [5] = tested on: esca; settings: 18.5 g/L injected into the trunk; cited from earlier work
# [6] = tested on: Inonotus obliquus; settings: concentrations of 0.9 and 9 mM; cited from earlier work
# [7] = tested on: leaves; experiment: Tests of phytotoxicity (upper limits of amounts); format: in vivo
# Experimental: According to the invention, the upper limits of amounts of the different products were determined in tests of phytotoxicity. First symptoms appear on the leaves at these amounts. […] These amounts can be slightly different or even greater depending on the sensitivity of the plant.
# [8] = in vivo; cited from earlier work
# [9] = ferrous salt 5 mM, solid medium pH 4.2, 18 days
# [10] = ferrous salt 10 mM, solid medium pH 4.2, 18 days
# [11] = ferrous salt 10 mM, FIG. 5 B, solid medium pH 4.2, 12 days
# [12] = ferrous salt 20 mM, FIG. 5 B, solid medium pH 4.2, 12 days
# [13] = Phaeomoniella chlamydospora, 432 h, pH 4.2, read-out: inhibition of growth
# [14] = 14C-labeled SA at 10 μM, after 4 hours of absorption
# [15] = Phaeoacremonium minimum, 288 h, pH 4.2, read-out: inhibition of growth
# [16] = sulfate 40 mM in BNM, solid medium pH 4.2, 18 days
# [17] = sulfate 40 mM in BNM, solid medium pH 4.2, 12 days
# [18] = 40 mM, used as the only nitrogen source (results not shown)
# [19] = Phaeomoniella chlamydospora, 432 h, pH 4.2, read-out: inhibition of mycelial development
compound,measurement,setting,value
CC(=O)[O-].CC(=O)[O-].[Fe+2] [iron acetate],"inhibition of growth, dose dependence",[1],dose-dependent inhibition
same,inhibition of growth,[1]; [9],40%
same,inhibition of growth,[1]; [10],completely inhibited
same,"inhibition of development, dose dependence",[2]; FIG. 5 B,dose-dependent inhibition
same,inhibition of growth,[2]; [11],45%
same,inhibition of growth,[2]; [12],completely inhibited
"O=C(O)c1ccccc1O [salicylic acid, 2-hydroxybenzoic acid]",inhibition at 500 µM,[1]; [13],10%
same,inhibition at 1000 µM,[1]; [13],28%
same,inhibition of fungal development,"[1]; salicylic acid 0.05 mM, solid medium pH 4.2, 18 days",does not inhibit
same,inhibition of fungal development,"[1]; salicylic acid 0.1 mM, solid medium pH 4.2, 18 days",does not inhibit
same,threshold value of antifungal action,[3],~0.1 mM
same,concentration detected in phloem sap,[4]; [14],100 µM
same,concentration detected in xylem sap,[4]; [14],0.67 µM
same,concentration factor in the phloem,[4]; pH between 4.6 and 5.0,~10
same,inhibition at 500 µM,[2]; [15],50%
same,inhibition of development,"[2]; salicylic acid 0.05 mM, FIG. 6 B, solid medium pH 4.2, 12 days",slightly inhibited
same,inhibition of growth,"[2]; salicylic acid 1 mM, FIG. 6 B, solid medium pH 4.2, 12 days",inhibited completely
O=C([O-])c1ccccc1O.[K+],efficacy on esca,[5],45.4%
iron chloride,"inhibition of growth, dose dependence",[1],dose-dependent inhibition; also recorded: comparable to that obtained with iron sulfate
same,inhibition of growth,[1]; [10],not the case
same,"inhibition of development, dose dependence",[2]; FIG. 5 B,dose-dependent inhibition
same,inhibition of growth,[2]; [11],75%
same,inhibition of growth,[2]; [12],completely inhibited
"N[C@@H](CS)C(=O)O [cysteine, L-cysteine]",inhibition at 500 µM,[1]; [13],0%
same,inhibition at 1000 µM,[1]; [13],13%
same,inhibition at 5000 µM,[1]; [13],34%
same,inhibition at 10000 µM,[1]; [13],80%
same,inhibition of development,[6],inhibits the development
same,inhibition at 500 µM,[2]; [15],11%
same,inhibition at 1000 µM,[2]; [15],18%
same,inhibition at 5000 µM,[2]; [15],24%
same,inhibition at 10000 µM,[2]; [15],37%
"O=S(=O)([O-])[O-].[K+].[K+] [K2SO4, potassium sulfate]",inhibition,[1]; [16],— (—: no inhibition)
same,inhibition,[2]; [17],— (—: no inhibition)
N.N.O=S(=O)(O)O [ammonium sulfate],growth,[1]; [18],slows the growth
same,inhibition,[1]; [16],— (—: no inhibition)
same,growth,[2]; [18],slows the growth
same,inhibition,[2]; [17],— (—: no inhibition)
O.O.O.O.O.O.O.O=S(=O)([O-])[O-].[Fe+2] [iron sulfate],"inhibition of growth, dose dependence",[1],dose-dependent inhibition
same,inhibition,"[1]; FeSO4 1 mM in BNM, solid medium pH 4.2, 18 days",4% inhibition
same,inhibition,"[1]; FeSO4 2.5 mM in BNM, solid medium pH 4.2, 18 days",21% inhibition
same,inhibition,"[1]; FeSO4 5 mM in BNM, solid medium pH 4.2, 18 days",64% inhibition
same,inhibition,"[1]; FeSO4 10 mM in BNM, solid medium pH 4.2, 18 days",95% inhibition
same,inhibition of growth,[1]; [9],65%
same,inhibition of growth,[1]; [10],not the case
same,inhibition,[1]; [16],completely inhibit
same,inhibition,"[1]; sulfate 40 mM in BNM, solid medium pH 4.2, 18 days, listed as FeSO4",100% inhibition
same,upper limit of amount determined in tests of phytotoxicity (first symptoms appear on the leaves),[7]; concentration in the composition,160 mM
same,"inhibition of development, dose dependence",[2]; FIG. 5 B,dose-dependent inhibition
same,inhibition,"[2]; FeSO4 1 mM in BNM, solid medium pH 4.2, 12 days",15% inhibition
same,inhibition,"[2]; FeSO4 2.5 mM in BNM, solid medium pH 4.2, 12 days",23.5% inhibition
same,inhibition,"[2]; FeSO4 5 mM in BNM, solid medium pH 4.2, 12 days",33% inhibition
same,inhibition,"[2]; FeSO4 10 mM in BNM, solid medium pH 4.2, 12 days",85% inhibition
same,inhibition of growth,"[2]; ferrous salt 5 mM, FIG. 5 B, solid medium pH 4.2, 12 days",more inhibited with iron sulfate than with iron chloride and acetate
same,inhibition of growth,[2]; [11],75%
same,inhibition of growth,[2]; [12],slight development
same,inhibition,[2]; [17],completely inhibit
same,inhibition,"[2]; sulfate 40 mM in BNM, solid medium pH 4.2, 12 days, listed as FeSO4",100% inhibition
"O=S(=O)([O-])[O-].[Mg+2] [MgSO4, magnesium sulfate]",inhibition,[1]; [16],— (—: no inhibition)
same,inhibition,[2]; [17],— (—: no inhibition)
"O=S(=O)([O-])[O-].[Cu+2] [CuSO4, copper sulfate]",inhibition,[1]; [16],100% inhibition
same,inhibition,"[1]; sulfate 40 mM in BNM, solid medium pH 4.2, 18 days, listed as copper sulfate",completely inhibit
same,inhibition,[2]; [17],100% inhibition
same,inhibition,"[2]; sulfate 40 mM in BNM, solid medium pH 4.2, 12 days, listed as copper sulfate",completely inhibit
"CCO[PH](=O)O [fosetyl-aluminum, aluminum tris-O-ethylphosphonate]",inhibition at 1000 µM,[1]; [19],6%
same,inhibition at 1700 µM,[1]; [19],14%
same,inhibition at 2700 µM,[1]; [19],46%
same,inhibition at 3400 µM,[1]; [19],86%
same,inhibition of mycelial development,"[1]; fosetyl-aluminum 0.3 mM, FIG. 7 A, solid medium pH 4.2, 18 days",no effect
same,pH of maximum absorption,[8],5.0
same,time of detection in the phloem exudate after application,[8],30 min
same,upper limit of amount determined in tests of phytotoxicity (first symptoms appear on the leaves),[7]; in vivo,81 mM
same,inhibition at 1700 µM,[2]; [15],~6%
same,inhibition at 2700 µM,[2]; [15],30%
same,inhibition at 3400 µM,[2]; [15],45%
same,inhibition of growth,"[2]; fosetyl-aluminum 0.3 mM, FIG. 7 B, solid medium pH 4.2, 12 days",no effect
same,inhibition of growth,"[2]; fosetyl-aluminum 1 mM, FIG. 7 B, solid medium pH 4.2, 12 days",no effect
